# Measurements published in patent US20090162277A1, “Lysophospholipids Solubilized Single-Walled Carbon Nanotubes” (Clemson University, priority 2005, published 2009).
# Read-outs that look alike come from different tables or passages of the source.
# Key:
# [1] = Solubility assay of SWNTs dispersed in PBS with phospholipids (optical density of supernatant); format: physicochemical
# Excerpt: Pristine SWNTs were synthesized using arc-deposition method. The average diameter of the SWNTs was approximately 1.4 nm measured by Raman spectroscopy and the average molecular weight of the SWNTs was 1×10^6 Dalton (Da) estimated from TEM. To measure the solubility provided by pure phospholipids, SWNTs were dispersed in phosphate buffered saline (PBS, pH=7.4) containing phospholipids of varying amounts. […] The weight ratio of solubilized SWNTs to LPC was approximately 1:10 corresponding to a molar ratio of 1:20,000 at saturation (FIG. 2b), indicating the high binding capacity of SWNTs.
# Solubility Assays. Glycerol phospholipids and lysoglycerophopholipids were purchased from Avanti Polar Lipids, Inc, AL. Cell growth mediums NB and RPMI fortified with 10% FBS were obtained from Difco and Gibco (Invitrogen), respectively. SWNTs of 1 mg were placed in a series of eppendorf tubes containing lysophospholipids LPC 18:0, PC 24:0, PG 36:2, and PE 32:0 of 10, 40, 100, 400 μg and 1, 4, 10, 40 mg in 1 mL PBS solution. The eppendorf tubes were placed in a water bath and sonicated for 1 hr at room temperature. The solution was centrifuged for 3 min at 6,177 g. Approximately 0.3 mL of the supernatant was transferred into a glass cuvette and read for optical density against a blank at 360 nm. Size Exclusion Chromatography. Sepharose CL-4B beads (Sigma) having an exclusion limit molecular weight of 20×10^6 Da were used for gel filtration chromatography in a 10 mm (diameter)×150 mm (length) open column. The flow rate was produced by gravity at approximately 0.5 mL/min. Samples in 1×PBS of 40 μL were loaded onto the column with 1 M acetic acid as the mobile phase. Molecular weight markers with visible colours were used for calibration. The dark colour of the lysophospholipid dispersed SWNTs was monitored visually by comparing the elution volume with those of standard compounds. SWNT-LPC complexes were centrifuged at 16,060 g and SWNT-LPA complexes centrifuged at 6,177 g for 3 min. Their supernatants were used for size exclusion chromatography. TEM Experiment. Buffered solutions of SWNT-LPC and SWNT-LPG were sonicated for 1 min. The solutions were placed on holey carbon grids for 1 min and the excess drawn off with filter paper. The grid was negatively stained with a 2% uranyl acetate solution for 1 min. The images were recorded at magnification ranges from 400,000 to 600,000 times with the Hitach 7600 transmission electron microscope at 100 and 120 kV. Bioassay. Free lysophospholipids and micelles in SWNT-lysophospholipid solution were removed by filtration through 100 kDa Microcon (Amicon, Inc) centrifugation tubes and washed 4 times. The resulting lysophospholipid-free and micelle-free SWNT-LPC complexes were tested by […] bioassay using colon cancer (CACO-2) and macrophage (THP-1) cell lines. Each cell line was incubated in its own 8-well chamber slide (LabTek) for 48 hr at 37° C. in a CO2 incubator. Prior to treatment, cell adhesion was checked by differential interference contrast (DIC) microscopy using a Zeiss 135 Axiovert inverted microscope. Treatments ranging from 5 to 40 ppm of lysophospholipid-free and micelle-free SWNT-LPC complexes were added to each adherent cell line and incubated for 3 hr at 37° C. in a CO2 incubator. After incubation, control and treated cells were fixed with 4% paraformaldehyde for 30 min, washed in PBS and subjected to an APO-BrdU TUNEL assay (Invitrogen). This assay detects the onset of apoptosis by fluorescent detection of nuclear DNA fragments or DNA breaks. Cells were labeled with deoxythymidine analog 5-bromo-2′-deoxyuridine 5′ triphosphate (BrdUTP) followed by the addition of Alexa-Fluor 488 labeled anti-BrdU antibody. Propidium iodide was used to image the total DNA content of cells. The prepared cells were imaged using a Zeiss 510 LSM confocal fluorescence microscope.
# MCF7 cells = assay: Rd-LPE translocation across cell membranes (rhodamine fluorescence imaging); format: cell-based; settings: incubation 0.5 to 3.0 hours
# Description: The SWNT lipid assemblies described above may be used to form an “optical switch” using rhodamine-lysophosphoethanolamine (Rd-LPE) and SWNTs. […] The construct of a Rd-LPE molecule and a coupled SWNT functions as a fluorescence resonance energy transfer (FRET) pair. […] FIG. 7A sets forth a control image without SWNTs. Rd-LPE was incubated with MCF7 cells for three hours. […] Images 7C through 7F show increased translocation of Rd-LPE across the MCF7 cells with respective incubation times of 0.5, 1.0, 2.0, and 3.0 hours. […] Further, the fluorescence is indicative that a physical separation between the SWNT and the Rd-LPE has occurred since the quenching effect was not observed.
Compound,solubility of SWNTs provided by the phospholipid [1],other results
lysophosphatidic acid [LPA 16:0],Comparable solubility,
"CCCCCCCCCCCCCCCC(=O)OCC(COP(=O)(O)OCCN)OC(=O)CCCCCCCCCCCCCCC (stereo not shown) [PE 32:0, 1,2-dipalmityolphosphatidylethanolamine, reference compound]",None of the above phospholipids provided good solubility,
lysophosphatidylcholine [LPC 18:0],,"effectiveness in dispersing SWNTs in PBS relative to SDS, on per molecule basis ([1]; 6,177 g RCF at tip): approximately 2.5 times; effectiveness in dispersing SWNTs relative to SDS ([1]; 16,060 g RCF at tip): one order of magnitude more effective than SDS; solubility of SWNTs provided by the phospholipid ([1]; SWNTs in PBS pH=7.4, sonication 1 hr at room temperature): completely solubilized"
"CCCCCCCCCCCCCC(=O)OC[C@H](COP(=O)([O-])OCC[N+](C)(C)C)OC(=O)CCCCCCCCCCCCC [PC 24:0, dimyristoyl phosphatidyl choline, reference compound]",None of the above phospholipids provided good solubility,
"CCCCCCCC/C=C\CCCCCCCC(=O)OCC(COP(=O)(O)OCC(O)CO)OC(=O)CCCCCCC/C=C\CCCCCCCC (stereo not shown) [PG 36:2, 1,2-dioleoylphosphatidylglycerol, reference compound]",None of the above phospholipids provided good solubility,
rhodamine-lysophosphoethanolamine [Rd-LPE],,translocation across the cell membrane (intracellular rhodamine fluorescence) (MCF7 cells): minimal Rd-LPE translocation
lysophosphatidylglycerol [LPG 18:0],Comparable solubility,solubility of SWNTs compared with SDS [1]: slightly better than SDS
